In patent US20250160328A1, “COMPOSITIONS AND METHODS FOR REDUCING PARASITIC INFESTATION OF HONEY BEE HIVES” (University of Georgia Research Foundation, Inc., priority 2022, published 2025):
Where “and” joins values, the source holds several entries; their conditions need not be identical. Equal entries are not always repeated.

Legend:
[1] = system: honey bees; settings: cited from earlier work; for intoxication symptoms to honey bees: under certain test conditions, Minnesota Department of Agriculture website
[2] = system: honey bees; test: Adult Honeybee Atoxicity Assays (mortality cages)
Procedure: In all instances, isocaloric sugar feed solutions were used (all honey bees were exposed to feed of equivalent sugar concentration). Both sets of experiments also tested the safety of methanol as a solvent for carrying the chlorantraniliprole. Mortality cages used approximately 20-50 bees per cage replicated across numerous colonies. Each cage was treated with one experimental dose of feed. Each colony donates a cage of bees to each dose in a full factorial experiment in line with tests used for EPA evaluation. Mortality was recorded at 24 hours and 48 hours.
Treatments included chlorantraniliprole concentrations of: 0 (w/methanol), 0 (w/o methanol), 0 (positive dimethoate control), 5, 15, 65, 250 μg/mL.

[3] = system: small hive beetle (SHB); test: Field Assay: SHB infestation of pollen supplement patties in hives; type: in vivo, Aethina tumida; settings: approximately 10 μg chlorantraniliprole per 1 g protein feed
Procedure: FIG. 2 is a bar graph of the experimental results from FIG. 1, showing the infestation rates of protein substitute mixed with concentrated solution of chlorantraniliprole, methanol, and glycerol according to trial instructions compared to untreated/control supplementary feed. Instructions achieved approximately 10 μg chlorantraniliprole per 1 g protein feed. Briefly, chlorantraniliprole was dissolved in methanol at a ratio of 1 mg chlorantraniliprole to 1 ml methanol via agitation/stirring. Chlorantraniliprole-methanol solution was cooled to −20° C. and then suspended/mixed into glycerol also cooled to −20° C. and stored between 4° C. and −20° C. to create a shelf-stable product. Product was then mixed into lethal attractant/supplementary feed at a rate of 50 ml formulated product per 1 kg feed or attractant via either mechanical or hand mixing at ambient temperature (200 ml of 80% glycerol/20% methanol was added to 4 kg of protein feed (i.e., 40 ml glycerol and 10 ml methanol per 1 kg protein feed). Treated attractant/feed mixture was then ready for deployment in the honey colony.
Pollen supplement was weighed out into two masses, each approximately 4 kg. To create the control pollen supplement patties, 200 ml of 80% glycerol, 20% methanol by volume solution was added to the pollen supplement mass. […]

[4] = system: adult small hive beetles; test: SHB Adult Feed Toxicity and Reproduction Assay; type: in vivo, Aethina tumida
Procedure: In-feed testing with adult small hive beetles was done with small hive beetle adults taken from colonies in the field and individuals reared in-lab. Adults from the field and in-lab were given three days to acclimate together in a large container with feed (2 parts pollen supplement; 1 part pollen; 1/2 part honey) in an incubator at 30 C. Simultaneously, 50 mg of Chlorantraniliprole was suspended in 50 mL (1.25 g/mL) glycerol, which was then mixed into 100 g feed, resulting in a concentration of 0.3 mg Chlorantraniliprole per 1 gram feed. A concentration of 100 μg of active ingredient per 1 gram feed was then achieved via dilution with feed and glycerol solution. Using serial dilution, feeds with varying concentrations of active ingredient were mixed, producing feeds with 100 μg, 10 μg, 1 μg, 0 μg (control) active ingredient per 1 g feed. Following the acclimation period, approximately 10 adult small hive beetles (some pots contained more than 10 individuals, but no more than 12) were randomly assigned to 32 pots, with 8 pots randomly assigned to each treatment (100 μg, 10 μg, 1 μg, 0 μg Chlorantraniliprole). Mortality and reproduction were then monitored at 4, 6, 18 and 34 days.

[5] = system: small hive beetle adults; test: SHB Adult Exposure Toxicity Assay (contact); type: in vivo, Aethina tumida
Procedure: Testing on chlorantraniliprole contact effectiveness was also conducted on small hive beetle adults. Each plate in which small hive beetles were placed contained an approximately 1 in×1 in square of absorbent shop towel located in the middle of the pot, soaked with solution via pipette. Tests included a methanol-negative (1:1 sugar to water/w) control group with 6 plates of 8 individuals, a methanol-positive (1:1 sugar to water/w solution with methanol then added in to be 1/6 of volume) control group with 7 plates of 8 individuals, a 5 μg treatment group (same as methanol-positive control with 5 μg a.i. added) with 7 plates of 8 individuals, and a 10 μg group (same as methanol-positive control with 10 μg a.i. added) with 7 plates of 8 individuals. Numbers of live beetles were tallied at the end of the test period.

[6] = system: bumblebee colony; settings: in vivo; cited from earlier work
[7] = system: adult carabid beetles; settings: Larson et al., Pest Manag. Sci. 2012; cited from earlier work
[8] = 10 μg/g chlorantraniliprole in feed
[9] = 100 μg/g chlorantraniliprole in feed

SMILES | intoxication symptoms to honey bees [1] | toxicity of the solvent to honey bees ([2]; methanol in sugar feed (30% by volume in set one) versus no methanol) | SHB infestation of patties in the five day field trial period ([3]; 5 days in hives) | SHB infestation of supplementary food after two weeks of incubation to hatch eggs ([3]; 5 days in hives then 14 days at 30 C) | sublethal effect observed in honeybees ([2]; 250 μg/mL, the very highest dose) | adult bee mortality at effective control concentrations ([2]; USDA-standard laboratory trials, FIG. 4) | honey bee mortality in relation to dose ([2]; set one 1.25-10 μg/mL, set two 5-250 μg/mL in sugar feed, 24 hours and 48 hours) | LD50 to Apis mellifera (EPA 2008) ([1]; EPA registration documentation as a lawn-treatment) [mg/bee] | oral toxicity (LD50) for bees, EPA Data ([1]; oral) | fold less toxic than clothianidin to Apis mellifera ([1]; versus a comparable neonicotinoid, clothianidin) | SHB larvae observed (reproduction) ([4]; 1 μg/g chlorantraniliprole in feed) | SHB larvae observed (reproduction) [4, 8] | mortality of adult small hive beetles [4, 8] | SHB larvae observed (reproduction) [4, 9] | time of exposure by which all adult small hive beetles were dead [4, 9] [days] | mortality of adult small hive beetles via contact exposure ([5]; 5 μg and 10 μg a.i. on soaked shop towel in sugar water/methanol) | survival of adult small hive beetles ([5]; 5 μg and 10 μg a.i., contact exposure, end of test period) | effects on bumblebee colony growth or mortality [6] | in-field toxicity to adult carabid beetles [7]
Cc1cc(C(F)(C(F)(F)F)C(F)(F)F)ccc1NC(=O)c1cccc(I)c1C(=O)NC(C)(C)CS(C)(=O)=O [flubendiamide] | little or no intoxication symptoms |  |  |  |  |  |  |  |  |  |  |  |  |  |  |  |  |  | 
CO [methanol] |  | No evidence of any toxicity |  |  |  |  |  |  |  |  |  |  |  |  |  |  |  |  | 
CNC(=O)c1cc(Cl)cc(C)c1NC(=O)c1cc(Br)nn1-c1ncccc1Cl [chlorantraniliprole] | little or no intoxication symptoms |  | remained free of SHB infestation | remained SHB-infestation free and 10/10 | Sublethal lethargy | no adult bee mortality | no significant increase in honey bee mortality | > 0.1 | exceeds 100 μg a.i. per bee | more than 2000 × | few larvae were observed but subsequently died while still in their first or second instars | No evidence of any larvael SHB | Elevated mortality | No evidence of any larvael SHB | ≤ 6 | no evidence of elevated mortality | all adult small hive beetles survived the experiment | no detectable negative effects | no evidence of apparent in-field toxicity
